Experiment: Case of a subject with familial hypertriglyceridemia: blood lipid levels on fenofibrate alone, then on concomitant Omacor and fenofibrate
Assay type: in vivo, human
Set-up: HDL-Cholesterol level / Non-HDL-Cholesterol level: unit not given here
[1] = same subject, fenofibrate alone vs one month of concomitant therapy

Compound: CC(C)OC(=O)C(C)(C)Oc1ccc(C(=O)c2ccc(Cl)cc2)cc1 [Fenofibrate, 2-[4-(4-chlorobenzoyl)phenoxy]-2-methyl-propanoic acid, 1-methylethyl ester]
- TG level (person, fenofibrate (Antara 130 mg QD) about 2 weeks, then plus Omacor 4 grams/day QD for one month): 749 mg/dL
- HDL-Cholesterol level [1]: 28
- Non-HDL-Cholesterol level [1]: 252
- Total-Cholesterol level [1]: 280 mg/dL

— patent US20060211749A1, “Treatment with omega-3 fatty acids and PPAR agonist and/or antagonist and a combination product thereof” (priority 2004, published 2006)
